# ChEMBL document CHEMBL5465560, “Selectivity Literature for EUbOPEN Chemogenomic Library” (2024)
# pIC50: −log10 of the molar value.
# Experiments:
# [1] = target: Platelet-derived growth factor receptor alpha (Homo sapiens, UniProt P16234); conditions: at 10 µM
# [2] = target: T1, Ephrin type-B receptor 2 (Homo sapiens) (UniProt P29323); experiment: Selectivity interaction (Millipore kinase profiler) EUB0000124b EPHB2; conditions: at 10 µM
# T1 sequence (whole entry): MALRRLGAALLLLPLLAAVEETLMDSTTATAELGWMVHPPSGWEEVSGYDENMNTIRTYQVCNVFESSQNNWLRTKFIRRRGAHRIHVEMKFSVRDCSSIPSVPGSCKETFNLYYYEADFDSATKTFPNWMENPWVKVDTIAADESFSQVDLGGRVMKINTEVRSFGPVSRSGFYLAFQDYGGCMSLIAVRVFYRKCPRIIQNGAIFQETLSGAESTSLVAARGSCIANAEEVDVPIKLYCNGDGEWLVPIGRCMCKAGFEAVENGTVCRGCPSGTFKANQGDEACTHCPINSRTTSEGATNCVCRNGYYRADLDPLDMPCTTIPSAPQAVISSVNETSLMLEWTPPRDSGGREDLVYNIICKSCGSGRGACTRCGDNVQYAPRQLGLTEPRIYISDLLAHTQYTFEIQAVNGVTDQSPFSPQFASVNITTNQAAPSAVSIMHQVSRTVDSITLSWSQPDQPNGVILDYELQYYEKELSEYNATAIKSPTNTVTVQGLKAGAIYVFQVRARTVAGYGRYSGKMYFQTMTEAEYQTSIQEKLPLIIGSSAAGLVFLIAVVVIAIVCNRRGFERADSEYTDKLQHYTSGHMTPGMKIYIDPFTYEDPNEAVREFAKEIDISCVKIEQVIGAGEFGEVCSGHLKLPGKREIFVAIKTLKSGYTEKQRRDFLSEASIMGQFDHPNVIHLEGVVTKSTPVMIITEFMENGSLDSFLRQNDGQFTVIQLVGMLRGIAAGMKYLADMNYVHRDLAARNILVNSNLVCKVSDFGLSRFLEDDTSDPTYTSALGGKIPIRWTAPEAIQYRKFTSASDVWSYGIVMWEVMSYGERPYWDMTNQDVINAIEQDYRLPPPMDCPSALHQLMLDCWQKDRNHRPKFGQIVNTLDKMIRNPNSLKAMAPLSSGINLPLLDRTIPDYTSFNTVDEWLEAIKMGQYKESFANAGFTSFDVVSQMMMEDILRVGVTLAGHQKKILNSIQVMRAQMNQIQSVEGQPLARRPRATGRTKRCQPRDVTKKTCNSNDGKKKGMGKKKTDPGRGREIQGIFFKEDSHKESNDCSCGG
# [3] = target: Hepatocyte growth factor-like protein (Homo sapiens) (UniProt P26927)
# [4] = target: Fibroblast growth factor receptor 2 (Homo sapiens) (UniProt P21802); experiment: Selectivity interaction (KinomeScan (DiscoverX)) EUB0001049a FGFR2; conditions: at 1 µM
# [5] = target: Serine/threonine-protein kinase 26 (Homo sapiens, UniProt Q9P289); experiment: Selectivity interaction (Kinase panel (literature)) EUB0001199aCl STK26; conditions: at 1 µM
# [6] = target: Histone-lysine N-methyltransferase SETD2 (Homo sapiens) (UniProt Q9BYW2); experiment: Selectivity interaction (Methyltransferase screen (radiometric assays, panel of 8 PRMTs, 21 protein lysine methyltransferases, 3 DNA methyltransferases, and one RNA methyltransferase)) EUB0000271b SETD2
# [7] = target: Receptor-interacting serine/threonine-protein kinase 2 (Homo sapiens, UniProt O43353); experiment: Selectivity interaction (NanoBRET assay (HEK293T cells)) EUB0000229b RIPK2; format: cell-based, HEK-293T
# [8] = target: Serine/threonine-protein kinase 25 (Homo sapiens) (UniProt O00506); experiment: Selectivity interaction (KinomeScan (DiscoverX)) EUB0000092b STK25; conditions: at 10 µM
# [9] = target: T2, Mitogen-activated protein kinase kinase kinase kinase 2 (Homo sapiens) (UniProt Q12851); experiment: Selectivity interaction (KinomeScan (DiscoverX)) EUB0000045b MAP4K2
# T2 sequence (whole entry): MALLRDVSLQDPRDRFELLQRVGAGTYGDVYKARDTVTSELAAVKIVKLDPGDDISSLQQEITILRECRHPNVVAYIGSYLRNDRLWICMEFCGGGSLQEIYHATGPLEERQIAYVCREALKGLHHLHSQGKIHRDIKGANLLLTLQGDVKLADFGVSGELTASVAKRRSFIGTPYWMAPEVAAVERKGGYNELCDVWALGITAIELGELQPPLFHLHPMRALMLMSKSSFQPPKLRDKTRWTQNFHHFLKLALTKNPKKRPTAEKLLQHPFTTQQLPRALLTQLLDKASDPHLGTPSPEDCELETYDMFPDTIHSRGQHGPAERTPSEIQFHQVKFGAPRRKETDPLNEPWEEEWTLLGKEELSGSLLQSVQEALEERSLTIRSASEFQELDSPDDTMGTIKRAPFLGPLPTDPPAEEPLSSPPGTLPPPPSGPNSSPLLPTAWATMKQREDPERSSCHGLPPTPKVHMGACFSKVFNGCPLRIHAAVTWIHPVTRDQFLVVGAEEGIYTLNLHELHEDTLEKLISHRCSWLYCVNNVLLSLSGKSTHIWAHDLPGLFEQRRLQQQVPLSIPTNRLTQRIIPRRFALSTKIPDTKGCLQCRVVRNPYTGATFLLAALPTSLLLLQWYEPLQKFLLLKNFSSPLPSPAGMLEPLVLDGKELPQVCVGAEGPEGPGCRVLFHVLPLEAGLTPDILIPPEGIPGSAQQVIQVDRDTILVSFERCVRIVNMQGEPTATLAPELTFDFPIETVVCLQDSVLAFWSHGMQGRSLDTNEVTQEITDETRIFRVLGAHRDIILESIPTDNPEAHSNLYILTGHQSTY
# [10] = target: Myosin light chain kinase, smooth muscle (Homo sapiens, UniProt Q15746); experiment: Selectivity interaction (KinomeScan (DiscoverX)) EUB0001619a MYLK; conditions: at 1 µM
# [11] = target: Calcium/calmodulin-dependent protein kinase kinase 2 (Homo sapiens) (UniProt Q96RR4); experiment: Selectivity interaction (KinomeScan (DiscoverX)) EUB0000666a CAMKK2; conditions: at 10 µM
# Chain of Histone-lysine N-methyltransferase SETD2 (Homo sapiens) (Q9BYW2 whole entry): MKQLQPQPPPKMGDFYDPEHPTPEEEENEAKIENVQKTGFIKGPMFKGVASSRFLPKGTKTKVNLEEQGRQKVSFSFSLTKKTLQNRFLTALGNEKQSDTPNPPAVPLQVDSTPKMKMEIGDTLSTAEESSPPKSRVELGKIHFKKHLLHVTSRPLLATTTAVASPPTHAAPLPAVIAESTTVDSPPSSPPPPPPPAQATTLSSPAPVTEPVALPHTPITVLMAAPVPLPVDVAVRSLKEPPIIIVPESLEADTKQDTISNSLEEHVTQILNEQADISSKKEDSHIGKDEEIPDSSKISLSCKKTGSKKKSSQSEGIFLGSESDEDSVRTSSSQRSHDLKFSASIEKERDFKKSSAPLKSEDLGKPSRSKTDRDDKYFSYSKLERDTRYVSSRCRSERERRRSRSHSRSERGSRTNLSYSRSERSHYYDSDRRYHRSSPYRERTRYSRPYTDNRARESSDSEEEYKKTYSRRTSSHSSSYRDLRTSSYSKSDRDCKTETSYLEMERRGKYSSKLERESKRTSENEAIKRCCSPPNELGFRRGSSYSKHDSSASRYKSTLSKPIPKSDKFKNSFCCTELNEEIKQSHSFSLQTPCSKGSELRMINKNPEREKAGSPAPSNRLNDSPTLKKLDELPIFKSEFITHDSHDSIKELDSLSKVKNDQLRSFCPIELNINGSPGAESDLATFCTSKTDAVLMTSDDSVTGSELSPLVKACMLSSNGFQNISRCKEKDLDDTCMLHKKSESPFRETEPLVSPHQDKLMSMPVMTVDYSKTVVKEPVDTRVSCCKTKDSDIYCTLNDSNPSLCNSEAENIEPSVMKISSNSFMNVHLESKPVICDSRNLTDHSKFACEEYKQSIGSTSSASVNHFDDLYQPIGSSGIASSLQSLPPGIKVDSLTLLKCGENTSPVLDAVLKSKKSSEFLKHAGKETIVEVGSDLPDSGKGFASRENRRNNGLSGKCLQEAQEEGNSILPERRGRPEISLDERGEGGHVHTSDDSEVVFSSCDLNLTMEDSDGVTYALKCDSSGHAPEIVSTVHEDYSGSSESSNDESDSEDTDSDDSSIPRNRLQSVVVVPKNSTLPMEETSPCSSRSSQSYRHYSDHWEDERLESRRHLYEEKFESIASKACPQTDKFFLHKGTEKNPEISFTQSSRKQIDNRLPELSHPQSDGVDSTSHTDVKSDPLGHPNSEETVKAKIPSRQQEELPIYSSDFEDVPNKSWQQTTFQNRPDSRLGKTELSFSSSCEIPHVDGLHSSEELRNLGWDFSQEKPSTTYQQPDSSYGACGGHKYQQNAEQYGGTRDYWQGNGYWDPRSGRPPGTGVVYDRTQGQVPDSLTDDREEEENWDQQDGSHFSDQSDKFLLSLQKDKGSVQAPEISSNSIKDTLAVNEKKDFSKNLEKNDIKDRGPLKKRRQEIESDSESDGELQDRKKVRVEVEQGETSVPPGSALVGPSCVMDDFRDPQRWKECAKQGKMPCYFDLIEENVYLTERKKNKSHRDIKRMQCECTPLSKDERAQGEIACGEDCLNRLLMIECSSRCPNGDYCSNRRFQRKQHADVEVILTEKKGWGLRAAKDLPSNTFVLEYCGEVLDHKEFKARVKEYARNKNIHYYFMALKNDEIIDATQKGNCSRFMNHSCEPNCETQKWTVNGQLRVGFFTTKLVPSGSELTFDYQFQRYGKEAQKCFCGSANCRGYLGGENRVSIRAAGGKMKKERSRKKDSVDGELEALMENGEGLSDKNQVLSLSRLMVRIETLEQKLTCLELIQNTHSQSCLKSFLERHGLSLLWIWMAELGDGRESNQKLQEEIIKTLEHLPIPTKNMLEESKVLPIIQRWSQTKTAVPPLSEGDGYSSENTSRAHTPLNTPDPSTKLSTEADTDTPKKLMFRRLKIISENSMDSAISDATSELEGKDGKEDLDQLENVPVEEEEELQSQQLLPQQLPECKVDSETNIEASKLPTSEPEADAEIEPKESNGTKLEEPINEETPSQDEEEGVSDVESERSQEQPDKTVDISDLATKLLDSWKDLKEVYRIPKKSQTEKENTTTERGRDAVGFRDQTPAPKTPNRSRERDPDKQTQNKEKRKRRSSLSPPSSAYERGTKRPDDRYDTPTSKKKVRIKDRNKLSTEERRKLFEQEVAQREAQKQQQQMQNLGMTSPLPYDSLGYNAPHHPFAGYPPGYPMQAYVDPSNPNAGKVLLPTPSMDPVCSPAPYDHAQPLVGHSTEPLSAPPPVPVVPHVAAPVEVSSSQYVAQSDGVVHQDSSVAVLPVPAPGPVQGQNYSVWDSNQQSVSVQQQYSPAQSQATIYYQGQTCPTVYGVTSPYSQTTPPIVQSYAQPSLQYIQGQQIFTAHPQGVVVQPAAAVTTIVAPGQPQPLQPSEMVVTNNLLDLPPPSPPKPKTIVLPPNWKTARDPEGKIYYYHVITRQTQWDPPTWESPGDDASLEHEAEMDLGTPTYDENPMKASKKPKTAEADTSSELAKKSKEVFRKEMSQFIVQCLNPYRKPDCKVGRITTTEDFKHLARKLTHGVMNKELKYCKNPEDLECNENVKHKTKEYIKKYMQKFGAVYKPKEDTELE
# Chain of Fibroblast growth factor receptor 2 (Homo sapiens) (P21802 22-821 limits assumed): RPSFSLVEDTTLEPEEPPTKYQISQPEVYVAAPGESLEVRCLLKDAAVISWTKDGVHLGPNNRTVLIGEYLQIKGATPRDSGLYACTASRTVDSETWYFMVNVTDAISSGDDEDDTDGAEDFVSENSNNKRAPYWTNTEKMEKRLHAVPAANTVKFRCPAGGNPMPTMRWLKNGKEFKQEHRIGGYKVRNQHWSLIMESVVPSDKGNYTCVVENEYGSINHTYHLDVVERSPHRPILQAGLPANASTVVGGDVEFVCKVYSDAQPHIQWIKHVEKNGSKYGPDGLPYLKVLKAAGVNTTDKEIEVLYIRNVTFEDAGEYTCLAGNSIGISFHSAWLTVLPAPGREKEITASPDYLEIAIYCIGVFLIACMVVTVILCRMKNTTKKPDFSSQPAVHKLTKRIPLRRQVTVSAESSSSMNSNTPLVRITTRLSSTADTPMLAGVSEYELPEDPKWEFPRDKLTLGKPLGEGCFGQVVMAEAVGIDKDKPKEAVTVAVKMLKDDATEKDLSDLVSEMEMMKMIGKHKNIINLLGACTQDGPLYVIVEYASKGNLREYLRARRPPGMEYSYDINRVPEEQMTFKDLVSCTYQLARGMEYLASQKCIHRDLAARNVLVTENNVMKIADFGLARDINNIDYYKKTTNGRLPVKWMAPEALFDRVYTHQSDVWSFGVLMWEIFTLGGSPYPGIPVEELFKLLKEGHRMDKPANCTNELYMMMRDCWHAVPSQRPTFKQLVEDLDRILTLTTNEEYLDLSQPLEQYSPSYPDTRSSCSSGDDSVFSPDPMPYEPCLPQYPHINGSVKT
# Chain of Serine/threonine-protein kinase 25 (Homo sapiens) (O00506 whole entry, looked up): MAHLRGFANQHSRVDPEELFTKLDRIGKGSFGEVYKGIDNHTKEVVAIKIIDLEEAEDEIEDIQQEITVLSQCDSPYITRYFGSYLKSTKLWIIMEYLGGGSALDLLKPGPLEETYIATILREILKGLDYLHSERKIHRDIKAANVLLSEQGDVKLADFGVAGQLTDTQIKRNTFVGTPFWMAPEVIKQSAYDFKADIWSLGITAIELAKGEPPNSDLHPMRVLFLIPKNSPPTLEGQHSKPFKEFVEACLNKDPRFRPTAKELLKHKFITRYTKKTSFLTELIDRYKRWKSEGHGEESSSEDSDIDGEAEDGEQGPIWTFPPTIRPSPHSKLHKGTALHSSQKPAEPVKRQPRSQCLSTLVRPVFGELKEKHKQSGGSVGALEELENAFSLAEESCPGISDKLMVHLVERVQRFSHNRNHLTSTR
# Chain of Receptor-interacting serine/threonine-protein kinase 2 (O43353 whole entry): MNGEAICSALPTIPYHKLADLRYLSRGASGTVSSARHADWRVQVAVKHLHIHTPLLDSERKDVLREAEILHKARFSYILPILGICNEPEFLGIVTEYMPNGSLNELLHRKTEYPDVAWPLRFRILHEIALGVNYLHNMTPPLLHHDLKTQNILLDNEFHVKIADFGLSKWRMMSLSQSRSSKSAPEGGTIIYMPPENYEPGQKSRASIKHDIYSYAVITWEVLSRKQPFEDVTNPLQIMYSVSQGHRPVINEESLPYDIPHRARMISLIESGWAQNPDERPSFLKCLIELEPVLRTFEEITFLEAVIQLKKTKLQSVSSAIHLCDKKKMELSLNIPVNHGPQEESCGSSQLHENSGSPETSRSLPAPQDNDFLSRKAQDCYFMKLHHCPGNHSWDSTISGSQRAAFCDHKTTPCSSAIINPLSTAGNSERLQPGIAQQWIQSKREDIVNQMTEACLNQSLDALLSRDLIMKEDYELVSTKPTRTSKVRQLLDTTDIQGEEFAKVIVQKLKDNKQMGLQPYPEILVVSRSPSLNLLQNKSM
# Chain of Serine/threonine-protein kinase 26 (Q9P289 2-416 limits assumed): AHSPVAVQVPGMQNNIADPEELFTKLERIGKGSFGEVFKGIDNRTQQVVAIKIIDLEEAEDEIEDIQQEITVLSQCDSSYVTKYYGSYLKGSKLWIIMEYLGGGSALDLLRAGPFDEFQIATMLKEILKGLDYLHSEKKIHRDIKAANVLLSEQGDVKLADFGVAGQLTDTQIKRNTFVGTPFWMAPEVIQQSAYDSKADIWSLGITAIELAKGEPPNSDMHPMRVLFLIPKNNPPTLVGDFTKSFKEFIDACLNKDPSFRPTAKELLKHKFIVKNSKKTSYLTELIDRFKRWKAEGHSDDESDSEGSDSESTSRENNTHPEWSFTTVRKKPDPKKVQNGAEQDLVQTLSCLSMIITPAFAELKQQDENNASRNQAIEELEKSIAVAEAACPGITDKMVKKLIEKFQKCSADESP
structure (smiles),measurement,setting,value
Cc1cc([C@@H](C)Nc2ccccc2C(=O)O)c2nc(N3CCOCC3)cc(=O)n2c1 [AZD-6482],% of control,[1],84%
CC(=O)Nc1cccc(-n2c(=O)n(C3CC3)c(=O)c3c(Nc4ccc(I)cc4F)n(C)c(=O)c(C)c32)c1,% of control,[2],107%
Cc1cnc(Nc2ccc(F)cc2Cl)nc1-c1c[nH]c(C(=O)N[C@H](CO)c2cccc(Cl)c2)c1,% of inhibition,[3],4%
COc1cc(Nc2nc(C)cc(-c3cnn4nc(OC)ccc34)n2)cc(C(F)(F)F)c1,% of control,[4],90%
CN1Cc2nccc(-c3cn(C)nc3-c3ccc(F)cc3)c2C1=O,% of inhibition,[5],8%
Cc1cc(C)cc([C@@H]2c3cc(C)ccc3NC(=O)CN2C(=O)c2ccc(Br)s2)c1,% of activity,[6]; at 1 µM,104%
same,% of activity,[6]; at 10 µM,101%
COc1cc(N(C)c2ccnc3ccc(C(F)(F)F)cc23)cc(OC)c1OC,pIC50,[7],< 5.00
CCC(=O)N1CCN(c2ccc(-n3c(=O)ccc4cnc5ccc(-c6cnc7ccccc7c6)cc5c43)cc2C(F)(F)F)CC1,% of control,[8],84%
C=CC(=O)Nc1cc(-n2c(=O)ccc3cnc4ccc(-c5ccc(NS(C)(=O)=O)cc5)cc4c32)ccc1C,% of control,[9]; at 1 µM,100%
same,% of control,[9]; at 10 µM,89%
N#Cc1cccc(-c2c[nH]c3ncnc(N4CCOCC4)c23)c1,% of control,[10],100%
O=C(NOC[C@H](O)CO)c1ccc(F)c(F)c1Nc1ccc(I)cc1F,% of control,[11],100%
